Assays:
serum IgE = assay: Level of serum IgE in asthma mice; assay type: in vivo, mouse; conditions: OVA asthma Balb/c mice, 5 or 15 mg/kg PO, FIG. 4
Description: 6 week old Balb/c female mice in the average weight of 20 g were adapted for 1 week. 2 mg of aluminum hydroxide (A8222, Sigma, St. Louis, Mo.) and 20 μg of ovalbumin (A5503, sigma, St. Louis, Mo.) were suspended in phosphate buffer (pH 7.4). Each mouse was administered with 200 μl of the phosphate buffer suspension via intraperitoneal injection for sensitization at 2 weeks intervals. The mouse was forced to inhale 1% ovalbumin (OVA) through ultrasonic atomizer for 30 minutes a day for 3 days after the first intraperitoneal injection of ovalbumin. 24 hours after the antigen administration, airway hyperreactivity was measured. 48 hours later, a lethal dose of pentobarbital (Entobar, Hanlim Pharma. Co., Ltd.) was administered to the mouse. The bronchus was opened and the alveoli were washed with 1.4 ml of saline. Then, the test samples were obtained. The normal control (NC) was not administered with ovalbumin nor inhaled. The asthma induced group (OVA) was administered with ovalbumin and inhaled to induce bronchial asthma. The comparative control was orally administered with dexamethasone (2 mg/kg, PO) one hour before the inhalation (DEX). […]
After performing the experiment of Experimental Example <3-1> above, the level of serum IgE relating to the severity of asthma was measured by enzyme immunoassay. […] Then, OD650 was measured.

[1] = Toxicity test, single oral administration: toxicological changes in abdomen, chest and major organs (autopsy); assay type: in vivo; conditions: for Clinical sign: Abdominal cavity (toxicological changes, animals affected/total) / Clinical sign: Major organs (toxicological changes, animals affected/total) / Clinical sign: Thoracic cavity (toxicological changes, animals affected/total) / Mortality (animals dead/total) / Clinical sign: Abdominal cavity (toxicological changes), Total / Clinical sign: Major organs (toxicological changes), Total / Clinical sign: Thoracic cavity (toxicological changes), Total / Mortality, Total: single oral administration, mouse
Excerpt: 1. Test Material and Control Material • Test material: compound of Example 4 • Storage condition: frozen storage • Control material: 10% DMSO+10% Tween 20 in PBS
2. Test System • Animal: female Balb/c • Animal provider: Koatech • Age and weight of animal • Age at the time of arrival: 5 week • Number at the time of arrival: 28 • Age at the start of administration: 6 week • Number at the start of administration: 28 ? • Weight at the start of administration: 16.1˜16.5 g
3. Administration Method and Preparation of Test Material • Administration method: single oral administration • Preparation of test material: Test materials were prepared by using 10% DMSO+10% Tween-20 in PBS as a solvent for each dose. The preparation was carried out immediately before the administration
On the 10th day after the administration, all the surviving animals were anesthetized with CO2 gas. Laparotomy was performed and the animals were sacrificed by venesection from the abdominal aorta. Then, all the internal organs of the animal were observed by the naked eye.
The compound of Example 4 was orally administered once to female Balb/c mouse at the doses of 250, 500, and 1000 mg/kg in order to obtain the information on acute toxicity of the compound of Example 4, followed by investigation of death rate, general symptoms, and weight changes for 10 days by autopsy.
After the administration of the compound of Example 4, the mice were autopsied on the last day, and the toxicological changes in the abdomen, chest and major organs were observed.

Structure (SMILES): COc1cc(CCCO)cc2cc(-c3ccc(C)cc3)oc12 [Example 4, 3-(7-methoxy-2-p-tolylbenzofuran-5-yl)propane-1-ol]
- generation of serum IgE induced by OVA (serum IgE): efficiently reduced
- Clinical sign: Abdominal cavity (toxicological changes, animals affected/total) ([1]; 250 mg/kg, Day 1): 0/7
- Clinical sign: Major organs (toxicological changes, animals affected/total) ([1]; 250 mg/kg, Day 1): 0/7
- Clinical sign: Thoracic cavity (toxicological changes, animals affected/total) ([1]; 250 mg/kg, Day 1): 0/7
- Mortality (animals dead/total) ([1]; 250 mg/kg, Day 1): 0/7
- Clinical sign: Abdominal cavity (toxicological changes, animals affected/total) ([1]; 250 mg/kg, Day 7): 0/7
- Clinical sign: Major organs (toxicological changes, animals affected/total) ([1]; 250 mg/kg, Day 7): 0/7
- Clinical sign: Thoracic cavity (toxicological changes, animals affected/total) ([1]; 250 mg/kg, Day 7): 0/7
- Mortality (animals dead/total) ([1]; 250 mg/kg, Day 7): 0/7
- Clinical sign: Abdominal cavity (toxicological changes, animals affected/total) ([1]; 250 mg/kg, Day 8): 0/7
- Clinical sign: Major organs (toxicological changes, animals affected/total) ([1]; 250 mg/kg, Day 8): 0/7
- Clinical sign: Thoracic cavity (toxicological changes, animals affected/total) ([1]; 250 mg/kg, Day 8): 0/7
- Mortality (animals dead/total) ([1]; 250 mg/kg, Day 8): 0/7
- Clinical sign: Abdominal cavity (toxicological changes, animals affected/total) ([1]; 250 mg/kg, Day 9): 0/7
- Clinical sign: Major organs (toxicological changes, animals affected/total) ([1]; 250 mg/kg, Day 9): 0/7
- Clinical sign: Thoracic cavity (toxicological changes, animals affected/total) ([1]; 250 mg/kg, Day 9): 0/7
- Mortality (animals dead/total) ([1]; 250 mg/kg, Day 9): 0/7
- Clinical sign: Abdominal cavity (toxicological changes, animals affected/total) ([1]; 250 mg/kg, Day 10): 0/7
- Clinical sign: Major organs (toxicological changes, animals affected/total) ([1]; 250 mg/kg, Day 10): 0/7
- Clinical sign: Thoracic cavity (toxicological changes, animals affected/total) ([1]; 250 mg/kg, Day 10): 0/7
- Mortality (animals dead/total) ([1]; 250 mg/kg, Day 10): 0/7
- Clinical sign: Abdominal cavity (toxicological changes), Total ([1]; 250 mg/kg): 0
- Clinical sign: Major organs (toxicological changes), Total ([1]; 250 mg/kg): 0
- Clinical sign: Thoracic cavity (toxicological changes), Total ([1]; 250 mg/kg): 0
- Mortality, Total ([1]; 250 mg/kg): 0
- Clinical sign: Abdominal cavity (toxicological changes, animals affected/total) ([1]; 500 mg/kg, Day 1): 0/7
- Clinical sign: Major organs (toxicological changes, animals affected/total) ([1]; 500 mg/kg, Day 1): 0/7
- Clinical sign: Thoracic cavity (toxicological changes, animals affected/total) ([1]; 500 mg/kg, Day 1): 0/7
- Mortality (animals dead/total) ([1]; 500 mg/kg, Day 1): 0/7
- Clinical sign: Abdominal cavity (toxicological changes, animals affected/total) ([1]; 500 mg/kg, Day 7): 0/7
- Clinical sign: Major organs (toxicological changes, animals affected/total) ([1]; 500 mg/kg, Day 7): 0/7
- Clinical sign: Thoracic cavity (toxicological changes, animals affected/total) ([1]; 500 mg/kg, Day 7): 0/7
- Mortality (animals dead/total) ([1]; 500 mg/kg, Day 7): 0/7
- Clinical sign: Abdominal cavity (toxicological changes, animals affected/total) ([1]; 500 mg/kg, Day 8): 0/7
- Clinical sign: Major organs (toxicological changes, animals affected/total) ([1]; 500 mg/kg, Day 8): 0/7
- Clinical sign: Thoracic cavity (toxicological changes, animals affected/total) ([1]; 500 mg/kg, Day 8): 0/7
- Mortality (animals dead/total) ([1]; 500 mg/kg, Day 8): 0/7
- Clinical sign: Abdominal cavity (toxicological changes, animals affected/total) ([1]; 500 mg/kg, Day 9): 0/7
- Clinical sign: Major organs (toxicological changes, animals affected/total) ([1]; 500 mg/kg, Day 9): 0/7
- Clinical sign: Thoracic cavity (toxicological changes, animals affected/total) ([1]; 500 mg/kg, Day 9): 0/7
- Mortality (animals dead/total) ([1]; 500 mg/kg, Day 9): 0/7
- Clinical sign: Abdominal cavity (toxicological changes, animals affected/total) ([1]; 500 mg/kg, Day 10): 0/7
- Clinical sign: Major organs (toxicological changes, animals affected/total) ([1]; 500 mg/kg, Day 10): 0/7
- Clinical sign: Thoracic cavity (toxicological changes, animals affected/total) ([1]; 500 mg/kg, Day 10): 0/7
- Mortality (animals dead/total) ([1]; 500 mg/kg, Day 10): 0/7
- Clinical sign: Abdominal cavity (toxicological changes), Total ([1]; 500 mg/kg): 0
- Clinical sign: Major organs (toxicological changes), Total ([1]; 500 mg/kg): 0
- Clinical sign: Thoracic cavity (toxicological changes), Total ([1]; 500 mg/kg): 0
- Mortality, Total ([1]; 500 mg/kg): 0
- Clinical sign: Abdominal cavity (toxicological changes, animals affected/total) ([1]; 1000 mg/kg, Day 1): 0/7
- Clinical sign: Major organs (toxicological changes, animals affected/total) ([1]; 1000 mg/kg, Day 1): 0/7
- Clinical sign: Thoracic cavity (toxicological changes, animals affected/total) ([1]; 1000 mg/kg, Day 1): 0/7
- Mortality (animals dead/total) ([1]; 1000 mg/kg, Day 1): 0/7
- Clinical sign: Abdominal cavity (toxicological changes, animals affected/total) ([1]; 1000 mg/kg, Day 7): 0/7
- Clinical sign: Major organs (toxicological changes, animals affected/total) ([1]; 1000 mg/kg, Day 7): 0/7
- Clinical sign: Thoracic cavity (toxicological changes, animals affected/total) ([1]; 1000 mg/kg, Day 7): 0/7
- Mortality (animals dead/total) ([1]; 1000 mg/kg, Day 7): 0/7
- Clinical sign: Abdominal cavity (toxicological changes, animals affected/total) ([1]; 1000 mg/kg, Day 8): 0/7
- Clinical sign: Major organs (toxicological changes, animals affected/total) ([1]; 1000 mg/kg, Day 8): 0/7
- Clinical sign: Thoracic cavity (toxicological changes, animals affected/total) ([1]; 1000 mg/kg, Day 8): 0/7
- Mortality (animals dead/total) ([1]; 1000 mg/kg, Day 8): 0/7
- Clinical sign: Abdominal cavity (toxicological changes, animals affected/total) ([1]; 1000 mg/kg, Day 9): 0/7
- Clinical sign: Major organs (toxicological changes, animals affected/total) ([1]; 1000 mg/kg, Day 9): 0/7
- Clinical sign: Thoracic cavity (toxicological changes, animals affected/total) ([1]; 1000 mg/kg, Day 9): 0/7
- Mortality (animals dead/total) ([1]; 1000 mg/kg, Day 9): 0/7
- Clinical sign: Abdominal cavity (toxicological changes, animals affected/total) ([1]; 1000 mg/kg, Day 10): 0/7
- Clinical sign: Major organs (toxicological changes, animals affected/total) ([1]; 1000 mg/kg, Day 10): 0/7
- Clinical sign: Thoracic cavity (toxicological changes, animals affected/total) ([1]; 1000 mg/kg, Day 10): 0/7
- Mortality (animals dead/total) ([1]; 1000 mg/kg, Day 10): 0/7
- Clinical sign: Abdominal cavity (toxicological changes), Total ([1]; 1000 mg/kg): 0
- Clinical sign: Major organs (toxicological changes), Total ([1]; 1000 mg/kg): 0
- Clinical sign: Thoracic cavity (toxicological changes), Total ([1]; 1000 mg/kg): 0
- Mortality, Total ([1]; 1000 mg/kg): 0
- toxicological changes (abdomen, chest and major organs) ([1]; 250, 500, 1000 mg/kg single oral, autopsy on last day): not observed

— patent US10053443B2, “2-phenylbenzofuran derivatives, method for preparing the same and use of the same for treating inflammatory disease” (KOREA RESEARCH INSTITUTE OF BIOSCIENCE AND BIOTECHNOLOGY, priority 2014, dated 2018)
